Laboratory results reported in patent US10828326B2, “Compositions and methods for treating and preventing venom related poisoning” (priority 2015, dated 2020).

Test system: human plasma
Assay: Thrombelastography of venom naïve human plasma with iron and/or CO addition (Example I)
Type: biochemical
Settings: baseline (venom naïve); 10 μM FeCl3 and/or 100 μM CORM-2; compared to plasma without any additions
Description: Two-hundred mg of lyophilized, pooled venom was obtained from four western diamondback rattlesnakes (Crotalus atrox) for experimentation. Venom was reconstituted in calcium-free phosphate buffered saline (PBS, Sigma-Aldrich, Saint Louis, Mo., USA) at a concentration of 20 mg/ml, aliquoted, and then stored at −80° C. until experimentation at the University of Arizona. Pooled human normal plasma (George King Bio-Medical, Overland Park, Kans., USA) anticoagulated with sodium citrate was rapidly thawed at 37° C. and used for experimentation. To assess the effects of pretreatment of fibrinogen with iron, CO, or both, 1% additions of PBS, ferric chloride (FeCl3, 99.9% pure, Sigma-Aldrich, Saint Louis, Mo., USA) in PBS, or CORM-2 (tricarbonyldichlororuthenium (II) dimer, a CO releasing molecule, Sigma-Aldrich, Saint Louis, Mo., USA) dissolved in dimethyl sulfoxide (DMSO, Sigma-Aldrich, Saint Louis, Mo., USA). The final concentrations of FeCl3 and CORM-2 were 10 μM and 100 μM, respectively; these concentrations are associated with nearly maximal augmenting effects on coagulation kinetics (see, Nielsen V G, et al., Blood Coagul Fibrinolysis 2014; 25:695-702). Plasma was exposed to these various agents for at least 5 min prior to incubations with venom.
The final volume for all subsequently described plasma sample mixtures was 359.4 μl. Sample composition consisted of 326 μl of plasma; 10 μl of tissue factor reagent (0.1% final concentration in distilled water; Diagnostica Stago S.A.S., Asnieres sur Seine, France) and 3.4 μl of PBS or venom (final concentration 0.5 μg/ml). […] The aforementioned plasma and venom mixtures were placed in a disposable cup in a computer-controlled Thrombelastograph® hemostasis system (Model 5000, Haemoscope Corp., Niles, Ill., USA) and incubated for 5 or 20 min at 37° C., with addition of 20 μl of 200 mM CaCl2) as the last step to initiate clotting. Data were collected at 37° C. for 15 min after 5 min of incubation, whereas samples incubated with venom for 20 min had data collected for 30 min, given the prolonged onset of coagulation and diminished rate of thrombus formation. The following elastic modulus-based parameters previously described (see, Nielsen, et al., 2014, Blood Coagul. Fibrinolysis 25:695-702; Nielsen, et al., 2011, Blood Coagul. Fibrinolysis 22: 443-447); Nielsen V G, et al., Blood Coagul Fibrinolysis 2014; 25:845-850) were determined: time to maximum rate of thrombus generation (TMRTG): this is the time interval (min) observed prior to maximum speed of clot growth; maximum rate of thrombus generation (MRTG): this is the maximum velocity of clot growth observed (dynes/cm^2/sec); and total thrombus generation (TTG, dynes/cm^2), the final viscoelastic resistance observed after clot formation.
Data are presented as mean+SD. A commercially available statistical program was used for one-way analysis of variance followed by Holm-Sidak post hoc analyses (SigmaStat 3.1, Systat Software, Inc., San Jose, Calif., USA). Graphics depicting viscoelastic data were generated with a commercially available program (OrigenPro 7.5, OrigenLab Corporation, Northampton, Mass., USA; CorelDRAW12, Corel Corporation, Mountain View, Calif., USA).

SMILES: [Cl][Fe]([Cl])[Cl] [iron, ferric chloride]
- maximum rate of thrombus generation (MRTG): increases
- time to maximum rate of thrombus generation (TMRTG): significantly decreases
- total thrombus generation (TTG): does not affect
